Results taken from patent publication US20060216718A1, “Method and system for estimating gene expression data” (priority 2005, published 2006).

Test system: gene expression
Assay: Differential gene expression by microarray, linear multi-factor model (FIG. 3)
Format: in vivo, rats
Conditions: in both males and females, relative to baseline treatment combination (males who received corn oil)
Protocol: Returning to FIG. 1, the gene expression data 14 thus acquired and, typically, background-corrected, transformed, normalized, and/or otherwise conditioned, is analyzed at step 16 without aggregating or summarizing the readings of the multiple probes from each gene, and with simultaneous assessment of the effects of all the experimental factors. For example, a linear, multi-factor model is used in one embodiment to achieve this. The linear, multi-factor model explicitly accounts for differences in expression between genes, between probes from the same gene, and between the effects of experimental factors (which in one embodiment are gender of the experimental animals, and chemical substance they have been exposed to). The effects of the experimental factors on gene expression are estimated simultaneously, rather than one-at-a-time. In this way, the analysis corresponds to the experimental design, where the factor levels are varied together and simultaneously, rather than one at a time, this enabling the assessment of possible, non-linear interactions between experimental factors. In one example, the linear model is of the form Yijnk=γn+τkn+σln+(τσ)kln+επjn+εijkln […]

## Clc1cc2c(cc1Cl)Oc1cc(Cl)c(Cl)cc1O2 [TCDD]
  differential gene expression (fold increase) of the genes denoted by reference number 40: about 40 fold
